Test [1] deals with IκBα. The note with it: previously shown (Beg 1993; Henkel 1993; Sun 1993); cited from earlier work.
The next test deals with NF-κB. As to the kind of experiment: Activation of NF-κB in vivo by agonists. The test is classed as cell-based. The note with it: agonists including PMA and ionomycin, TNF-α, and LPS.
Test [2] concerns the target T1, IκBα kinase (Homo sapiens, UniProt O14920+O15111).
T1 construct: IC50 against IκBα kinase activity; FI; Km of IκBα kinase for ATP
As to the kind of experiment: ELISA-based IκBα kinase assay (ELISA scheme 1), MEKK1-activated partially purified kinase. The format is biochemical. The note with it: 10 μM inhibitor added to activated kinase before the biotinylated peptide substrate. The method, then:
IκBα kinase was prepared by first diluting S-100 HeLa cell extracts [1:10] with 50 mM HEPES pH 7.6 and 40% ammonium sulfate was added for 30 minutes on ice. Collected pellet was redissolved to a minimum volume, centrifuged, and filtered through a 0.22 μm filter. Sample was loaded onto a Superose-6 FPLC column equilibrated with 50 mM HEPES pH 7.6. 25 mM NaCl, 1 mM DTT, operated at 4° C. at 1 mL/min flow rate. Fractions were assayed for activity by the gel-shift assay. Active fractions peaked at ˜700 kD were collected, pooled, and protein concentration was determined.
ELISA scheme 1—Biotinylated peptide substrate at 500 μM was incubated with partially purified kinase alone, with 30 nM MEKK1Δ alone, or in combination for 2 hrs at 37° C. with 2.5 mM ATP, 10 mM DTT, 5 μM okadaic acid in the presence or absence of inhibitor. Kinase reactions were quenched by diluting [1:50] with PBS-BTE (PBS, 0.1% BSA, 0.05% Tween-20, 20 mM EDTA). […] Color development was performed with o-phenylenediamine dihydrochloride (Sigma FAST o-PD) and signals were recorded at 450 nm. Alternatively, peroxidase reaction was quenched with 3 N HCl and signals were read at 492 nm.
When control primary antibody which recognizes all IκBα species was used, all samples containing biotinylated peptide substrate produced peroxidase activity as detected by the o-PD conversion. […]

Test [3] relates to IκBα. The test is described as follows: Phosphorylation and ubiquitination of 35S-labeled IκBα in HeLa cell cytoplasmic extracts with okadaic acid. The format is biochemical, human. The note with it: 10 μM; in the presence of okadaic acid; FIG. 9.
Description: ^35S-labeled IκBα was synthesized by in vitro translation, and used as a substrate for phosphorylation (bottom panel, short exposure) and ubiquitination (top panel, long exposure) assays in HeLa cell cytoplasmic extracts in the presence of okadaic acid (Chen et al., Genes and Dev. 9:1586-1597 (1995)). Various agents were included in the reaction to test their ability to inhibit the phosphorylation and ubiquitination of IκBα.
Test [4] deals with IκBα kinase. The test is described as follows: Phosphorylation of IκBα by partially purified IκBα kinase (gel-based). The format is biochemical, human. The method, then:
Unless otherwise indicated, phosphorylation of IκBα was usually carried out at 37° C. for 1 hour in a reaction volume of 10 μl containing: an ATP regenerating system (50 mM Tris-HCl, pH 7.6, 5 mM MgCl2, 2 mM ATP, 10 mM creatine phosphate, 3.5 units/ml creatine kinase, 0.6 units/ml inorganic pyrophosphatase), 0.5 μl of in vitro translated ^35S-labeled IκBα, 2 μg/ml of recombinant RelA homodimer (to form complex with IκBα), 3 μM okadaic acid, 60 μM ubiquitin, 50 nM E1 (rabbit), 1 μM UBC4 (yeast) or GST-UBCh5 (human), and 0.5-3 μl of IκBα kinase containing fractions. In some experiments, HeLa fraction I (1 mg/ml) was used as a source of E2s. At the end of each reaction, SDS sample buffer was added to quench the reaction, and the samples were analyzed by SDS-PAGE (9%) followed by flourography. Phosphorylation of IκBα was quantitated by PhosphorImager analysis. Ubiquitination of IκBα has been described previously (Chen, Z. J. et al., Genes & Dev. 9:1586-1597 (1995)).

The target in test [5] is T1, IκBα kinase. As to the kind of experiment: Polypeptide inhibition of 35S-IκBα phosphorylation by IκBα kinase (gel-based). The note with it: ubiquitination-activated kinase, 37° C., 40 min, FIG. 20. The test is classed as biochemical. The method, then: An N-terminal fragment (residues 5-72) of IκBα was expressed in E. coli as a recombinant protein containing a poly-histidine (His6) tag at the N-terminus.Protein purification was accomplished by nickel affinity chromatography. As a control, the full-length IκBα (SEQ ID NO:9; Haskill (1991) Cell 65:1281) was also expressed and purified in a similar fashion.
Recombinant full-length IκBα or IκBα (5-72) was added at indicated concentration to 10 μl of reaction mixture containing an ATP regenerating system (50 mM Tris at pH 7.6, 5 mM MgCl2, 2 mM ATP, 10 mM phosphocreatine, 3.5 U/ml creatine phosphokinase, 0.6 U/ml inorganic pyrophosphatase), 60 μM Ubiquitin, 50 nM E1, 1 μM UBC4, 0.5 μl of in vitro translated ^35S-IκBα, 0.5 μl of IκBα kinase (fraction 19 from Superdex 200 column), and 3 μM okadaic acid. After incubation at 37° C. for 40 min., the reaction was quenched by the addition of SDS sample buffer, separated by electrophoresis on 9% SDS-polyacrylamide gel, and then analyzed by fluorography.

Here are results for five molecules from patent publication US7452977B2, “Antibody to a kinase capable of site-specific phosphorylation of IκBα” (Millennium Pharmaceuticals, Inc., priority 1996, dated 2008).

T1 sequence (O14920 whole entry): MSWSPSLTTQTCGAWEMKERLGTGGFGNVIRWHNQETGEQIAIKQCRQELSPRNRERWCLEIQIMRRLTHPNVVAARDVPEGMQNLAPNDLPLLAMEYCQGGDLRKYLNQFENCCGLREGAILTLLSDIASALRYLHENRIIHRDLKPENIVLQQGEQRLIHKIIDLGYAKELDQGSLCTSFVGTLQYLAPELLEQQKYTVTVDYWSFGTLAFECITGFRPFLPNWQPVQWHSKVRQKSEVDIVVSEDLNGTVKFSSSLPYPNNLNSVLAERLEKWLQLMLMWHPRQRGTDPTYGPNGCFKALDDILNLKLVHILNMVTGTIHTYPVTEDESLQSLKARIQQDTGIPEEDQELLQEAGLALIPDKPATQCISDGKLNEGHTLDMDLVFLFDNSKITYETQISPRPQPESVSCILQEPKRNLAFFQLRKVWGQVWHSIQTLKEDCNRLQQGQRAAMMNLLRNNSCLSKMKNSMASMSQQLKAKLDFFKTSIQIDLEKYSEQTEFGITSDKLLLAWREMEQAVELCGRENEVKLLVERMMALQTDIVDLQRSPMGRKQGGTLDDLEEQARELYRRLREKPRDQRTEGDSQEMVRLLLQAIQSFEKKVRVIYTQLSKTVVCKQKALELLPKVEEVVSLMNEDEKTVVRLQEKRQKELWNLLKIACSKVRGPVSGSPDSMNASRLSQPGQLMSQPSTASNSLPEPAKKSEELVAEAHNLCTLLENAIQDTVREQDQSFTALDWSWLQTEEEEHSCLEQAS
T1 sequence (O15111 whole entry): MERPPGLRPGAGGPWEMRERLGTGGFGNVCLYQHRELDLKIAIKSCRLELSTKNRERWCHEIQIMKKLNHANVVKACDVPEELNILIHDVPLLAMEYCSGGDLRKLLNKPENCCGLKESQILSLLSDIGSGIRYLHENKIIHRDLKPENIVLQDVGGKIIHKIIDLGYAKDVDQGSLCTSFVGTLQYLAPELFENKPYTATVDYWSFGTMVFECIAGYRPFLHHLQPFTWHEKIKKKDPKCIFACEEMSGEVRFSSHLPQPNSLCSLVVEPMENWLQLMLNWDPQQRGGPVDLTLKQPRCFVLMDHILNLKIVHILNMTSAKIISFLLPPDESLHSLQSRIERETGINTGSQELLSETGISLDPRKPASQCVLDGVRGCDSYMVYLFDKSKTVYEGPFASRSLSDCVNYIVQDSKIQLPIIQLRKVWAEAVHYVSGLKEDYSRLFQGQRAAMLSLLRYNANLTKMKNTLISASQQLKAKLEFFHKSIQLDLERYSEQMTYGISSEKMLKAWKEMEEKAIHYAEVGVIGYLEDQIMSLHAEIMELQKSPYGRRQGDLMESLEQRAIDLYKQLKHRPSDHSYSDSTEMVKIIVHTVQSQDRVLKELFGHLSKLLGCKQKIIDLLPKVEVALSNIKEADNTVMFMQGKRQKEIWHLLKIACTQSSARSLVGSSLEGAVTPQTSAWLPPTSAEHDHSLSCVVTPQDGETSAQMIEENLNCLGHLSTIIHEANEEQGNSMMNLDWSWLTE
T1 sequence (Q9Y6K9 whole entry partner): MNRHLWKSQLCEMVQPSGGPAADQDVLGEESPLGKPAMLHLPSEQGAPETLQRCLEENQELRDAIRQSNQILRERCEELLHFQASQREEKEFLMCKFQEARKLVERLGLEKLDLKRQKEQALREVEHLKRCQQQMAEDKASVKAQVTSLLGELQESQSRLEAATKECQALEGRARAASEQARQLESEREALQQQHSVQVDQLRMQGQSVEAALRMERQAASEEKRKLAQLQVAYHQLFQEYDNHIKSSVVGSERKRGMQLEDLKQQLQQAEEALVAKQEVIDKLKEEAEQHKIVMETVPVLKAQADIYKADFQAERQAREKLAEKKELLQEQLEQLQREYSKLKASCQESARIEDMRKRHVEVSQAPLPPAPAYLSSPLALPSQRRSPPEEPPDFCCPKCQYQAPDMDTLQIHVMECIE

On to `Cc1ccc(S(=O)(=O)N[C@@H](CCCCN)C(=O)CCl)cc1` [TLCK, Nα-p-tosyl-L-lysine chloromethyl ketone], for which the “inhibition of phosphorylation and degradation of IκBα in vivo” value with IκBα [1] is listed as “inhibit”. On to “N-tosyl-L-phenylalanine chloromethyl ketone [TPCK]”, for which, in the test on IκBα [1], the “inhibition of phosphorylation and degradation of IκBα in vivo” value is recorded as “inhibit”. For `COC(=O)[C@@]1(O)C[C@H]2O[C@]1(C)n1c3ccccc3c3c4c(c5c6ccccc6n2c5c31)C(=O)NC4` [K252a], in the test on NF-κB, the “inhibition of the activation of NF-κB in vivo” value is “inhibit the activation of NF-κB in vivo”. Besides, the “inhibition of MEKK1 dependent kinase activity” value at IκBα kinase [2] is reported as “fully inhibited”. For the same molecule, the “inhibition of phosphorylation and ubiquitination of IκBα in HeLa cell extracts” value in the test on IκBα [3] is recorded as “Inhibit”. Further, the “inhibition of phosphorylation of IκBα by partially purified IκBα kinase” value in the test with IκBα kinase [4] was “inhibits”.

B1: full-length IκBα: recombinant full-length IκBα (SEQ ID NO:9), expressed and purified as control (protein, listed as Homo sapiens)
chain: MFQAAERPQEWAMEGPRDGLKKERLLDDRHDSGLDSMKDEEYEQMVKELQEIRLEPQEVPRGSEPWKQQLTEDGDSFLHLAIIHEEKALTMEVIRQVKGDLAFLNFQNNLQQTPLHLAVITNQPEIAEALLGAGCDPELRDFRGNTPLHLACEQGCLASVGVLTQSCTTPHLHSILKATNYNGHTCLHLASIHGYLGIVELLVSLGADVNAQEPCNGRTALHLAVDLQNPDLVSLLLKCGADVNRVTYQGYSPYQLTWGRPSTRIQQQLGQLTLENLQMLPESEDEESYDTESEFTEFTEDELPYDDCVFGGQRLTL
On to B1, for which, in the test with IκBα kinase [5], the “inhibition of phosphorylation of 35S-IκBα by purified IκBα kinase” value is recorded as “inhibition”.

B2: IκBα (5-72): N-terminal fragment (residues 5-72) of IκBα, recombinant from E. coli with N-terminal His6 tag (protein)
chain: HHHHHHAERPQEWAMEGPRDGLKKERLLDDRHDSGLDSMKDEEYEQMVKELQEIRLEPQEVPRGSEPWKQQLTE
Regarding B2, the “inhibition of phosphorylation of 35S-IκBα by purified IκBα kinase” value with IκBα kinase [5] was “inhibition”; with IκBα kinase [5] (listed as amino acid residues 5-72 of IκBα) it was “selectively inhibits”.
